Test results as given in US20210198277A1, “AMINE-SUBSTITUTED ARYL OR HETEROARYL COMPOUNDS” (Epizyme, Inc., priority 2016, published 2021).
Like-named read-outs stand apart in the source and are kept apart here.

Key:
human EHMT2 913-1193 = target: T1, human EHMT2 913-1193 (Homo sapiens, UniProt Q96KQ7); test: EHMT2 enzyme assay on histone peptide substrate (EHMT2 PEP); type: biochemical
T1 construct: recombinant purified human EHMT2 913-1193, Viva; purchased Viva
T1 sequence (Q96KQ7 913-1193): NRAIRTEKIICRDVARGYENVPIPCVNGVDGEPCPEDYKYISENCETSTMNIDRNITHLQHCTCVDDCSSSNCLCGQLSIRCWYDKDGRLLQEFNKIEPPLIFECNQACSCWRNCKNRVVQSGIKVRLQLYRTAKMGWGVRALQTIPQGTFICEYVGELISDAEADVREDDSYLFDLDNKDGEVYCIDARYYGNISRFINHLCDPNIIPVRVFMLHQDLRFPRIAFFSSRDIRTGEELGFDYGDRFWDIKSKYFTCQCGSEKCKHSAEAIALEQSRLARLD
Method in brief: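 Radiometric methyltransferase assay: 0.031 nM EHMT2 913-1193 preincubated 30 min with compound (10-point 3-fold series, top final 50 μM, 2% DMSO) in 20 mM Bicine pH 7.5, 1 mM TCEP. Biotinylated histone peptide methylated with ^3H-SAM for 60 min at room temperature, quenched with unlabeled SAM, captured on streptavidin Flashplates and counted.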

EHMT1 = target: T2, EHMT1 (Homo sapiens, UniProt Q9H9B1); test: EHMT1 enzyme assay on peptide substrate (EHMT1 PEP); type: biochemical
T2 sequence (Q9H9B1 1-1298): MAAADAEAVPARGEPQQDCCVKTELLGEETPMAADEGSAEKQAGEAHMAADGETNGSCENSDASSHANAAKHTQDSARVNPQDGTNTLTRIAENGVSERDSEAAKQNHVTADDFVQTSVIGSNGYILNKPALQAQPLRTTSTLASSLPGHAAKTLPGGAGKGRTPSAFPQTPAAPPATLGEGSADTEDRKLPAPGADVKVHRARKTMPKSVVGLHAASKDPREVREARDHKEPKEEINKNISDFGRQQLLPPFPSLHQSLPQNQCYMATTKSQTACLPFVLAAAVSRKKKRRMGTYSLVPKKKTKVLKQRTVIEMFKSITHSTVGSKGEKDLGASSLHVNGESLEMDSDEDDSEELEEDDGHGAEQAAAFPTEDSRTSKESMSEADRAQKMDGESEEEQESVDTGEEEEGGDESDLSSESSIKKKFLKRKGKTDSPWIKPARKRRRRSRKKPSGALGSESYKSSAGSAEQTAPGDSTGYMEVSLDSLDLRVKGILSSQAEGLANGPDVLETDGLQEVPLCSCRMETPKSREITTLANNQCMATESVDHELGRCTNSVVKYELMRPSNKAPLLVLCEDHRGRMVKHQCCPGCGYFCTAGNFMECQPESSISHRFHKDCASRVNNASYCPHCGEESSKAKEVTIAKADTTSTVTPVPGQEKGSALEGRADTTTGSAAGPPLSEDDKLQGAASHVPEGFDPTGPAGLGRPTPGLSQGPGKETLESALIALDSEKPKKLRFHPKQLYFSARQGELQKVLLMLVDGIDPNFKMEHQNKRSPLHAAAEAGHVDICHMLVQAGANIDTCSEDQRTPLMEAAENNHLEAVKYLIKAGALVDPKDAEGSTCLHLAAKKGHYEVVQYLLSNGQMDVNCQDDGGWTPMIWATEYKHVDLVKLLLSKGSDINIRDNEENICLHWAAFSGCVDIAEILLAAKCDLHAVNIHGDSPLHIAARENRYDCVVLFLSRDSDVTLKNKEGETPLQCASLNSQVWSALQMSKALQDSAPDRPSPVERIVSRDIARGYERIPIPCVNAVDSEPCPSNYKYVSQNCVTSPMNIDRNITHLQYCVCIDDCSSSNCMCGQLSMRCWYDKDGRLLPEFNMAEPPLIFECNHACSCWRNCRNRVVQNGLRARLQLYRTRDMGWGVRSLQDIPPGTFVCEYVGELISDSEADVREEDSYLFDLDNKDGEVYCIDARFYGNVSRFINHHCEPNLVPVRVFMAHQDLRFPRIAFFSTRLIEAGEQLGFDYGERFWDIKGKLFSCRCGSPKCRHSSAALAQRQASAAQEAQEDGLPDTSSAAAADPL

[1] = Table III, read-out: EHMT2 PEP (IC50 μM)
[2] = Table III, read-out: EHMT1 PEP (IC50 μM)
[3] = Table VI, read-out: EHMT2 PEP IC50
[4] = Table VI, read-out: EHMT1 PEP IC50

Row | SMILES | IC50 (human EHMT2 913-1193; [1]) [µM] | IC50 (EHMT1; [2]) [µM] | IC50 (human EHMT2 913-1193; [3]) [µM] | IC50 (EHMT1; [4]) [µM]
1 | COc1ccc(Nc2cccc3cn(C)nc23)cc1OCCCN1CCCC1 [Compound 346] | > 10 | > 10 |  | 
2 | COc1ccc(Nc2ccc3ncn(C)c3n2)cc1OCCCN1CCCC1 [Compound 342] | > 10 | > 10 |  | 
3 | COc1ccc(Nc2cc3c(cn2)ncn3C)cc1OCCCN1CCCC1 [Compound 258, N-(4-methoxy-3-(3-(pyrrolidin-1-yl)propoxy)phenyl)-1-methyl-1H-imidazo[4,5-c]pyridin-6-amine] | > 10 | > 10 |  | 
4 | CNc1cc(C)nc(Nc2ccc(OC)c(C#CC3CCN(C)C3)c2)n1 (stereo not drawn) [Compound 847] |  |  | 0.1 to 1 | < 0.1
5 | CNc1cc(C)nc(Nc2ccc(OC)c(C#CC3CCCN3C)c2)n1 (stereo not drawn) [Compound 848] |  |  | < 0.1 | < 0.1
6 | CNc1cc(C2CCN(CCC(F)(F)F)CC2)c2cc(OC)c(OCCCN3CCCC3)cc2n1 [Compound 832] |  |  | < 0.1 | < 0.1
7 | COc1ccc(Nc2nccc(NCC3CCOCC3)n2)cc1OC1CCC2(CC1)CN(C)C2 [Compound 260, N^2-(4-methoxy-3-((2-methyl-2-azaspiro[3.5]nonan-7-yl)oxy)phenyl)-N^4-((tetrahydro-2H-pyran-4-yl)methyl)pyrimidine-2,4-diamine] | > 10 | > 10 |  | 
8 | COc1cc2c(C3CCOCC3)cc(N3CCCCC3)nc2cc1OCCCN1CCCC1 [Compound 824] |  |  | 0.1 to 1 | 0.1 to 1
9 | CNc1cc(Nc2cc(OCCCN3CCCC3)c(OC)cn2)cnn1 [Compound 323, N^5-(5-methoxy-4-(3-(pyrrolidin-1-yl)propoxy)pyridin-2-yl)-N^3-methylpyridazine-3,5-diamine] | > 10 | > 10 |  | 
10 | COc1ccc(Nc2ccc3nn(C)cc3c2)cc1OCCCN1CCCC1 [Compound 345] | > 10 | > 10 |  | 
11 | COc1cc2c(C3CCOCC3)cc(=O)[nH]c2cc1OCCCN1CCCC1 [Compound 822] |  |  | > 10 | > 10
12 | CNc1cc(C)nc(Nc2ccc(OC)c(CN[C@@H]3CCNC3)c2)c1 [Compound 814] |  |  | 1 to 10 | 1 to 10
13 | COc1ccc(Nc2nn(C)c3cnccc23)cc1OCCCN1CCCC1 [Compound 794] |  |  | > 10 | > 10
14 | CNc1cc(C2CCN(CC(F)(F)F)CC2)c2cc(OC)c(OCCCN3CCCC3)cc2n1 [Compound 833] |  |  | < 0.1 | < 0.1
15 | COc1ccc(NCCCN2CCCC2)cc1Nc1nccc(NCC2CCOCC2)n1 [Compound 352] | > 10 | > 10 |  | 
16 | COc1cc2c(C3CCOCC3)cc(N(C)C)nc2cc1OCCCN1CCCC1 [Compound 825] |  |  | 0.1 to 1 | 0.1 to 1
17 | CNc1ccnc(Nc2ccc(OC)c(OCCCN3CC[C@@H](F)C3)c2)n1 [Compound 353] | 0.1 to 1 | 0.1 to 1 |  | 
18 | CNc1cc(C2CCCCC2)c2cc(OC)c(OCCCN3CCCC3)cc2n1 [Compound 816] |  |  | < 0.1 | < 0.1
19 | CNc1cc(C)nc(Nc2ccc(OC)c(OC[C@H]3C[C@H](N(C)C)C3)c2)n1 [Compound 330] | > 10 | 1 to 10 |  | 
20 | COc1cnc(Nc2nn(C)c3cnccc23)cc1OCCCN1CCCC1 [Compound 795] |  |  | > 10 | > 10

Row | SMILES | IC50 (human EHMT2 913-1193; [1]) [µM] | IC50 (EHMT1; [2]) [µM] | IC50 (human EHMT2 913-1193; [3]) [µM] | IC50 (EHMT1; [4]) [µM]
21 | CNc1cc(C2CCN(C(C)=O)CC2)c2cc(OC)c(OCCCN3CCCC3)cc2n1 [Compound 809] |  |  | < 0.1 | < 0.1
22 | CNc1cc(C)nc(Nc2ccc(OC)c(C#CCN3CCN(C)CC3)c2)n1 [Compound 860] |  |  | > 10 | > 10
23 | COc1cnc(Nc2nc(C)nc3[nH]ccc23)cc1OCCCN1CCCC1 [Compound 326, N-(5-methoxy-4-(3-(pyrrolidin-1-yl)propoxy)pyridin-2-yl)-2-methyl-7H-pyrrolo[2,3-d]pyrimidin-4-amine] | 0.1 to 1 | 0.1 to 1 |  | 
24 | CCn1nc(Nc2nccc3[nH]ccc23)cc1COCCN1CCCC1 [Compound 333] | 1 to 10 | 1 to 10 |  | 
25 | CNc1cc(C)nc(Nc2ccc(OC)c(C#CC3CCCN3)c2)n1 (stereo not drawn) [Compound 846] |  |  | < 0.1 | < 0.1
26 | COc1ccc(Nc2ccnc(NCC3CCN(C(C)=O)CC3)n2)cc1OCCCN1CCCC1 [Compound 340] | 0.1 to 1 | 0.1 to 1 |  | 
27 | COc1cc2c(C3CCN(CC(F)(F)F)CC3)cc(C)nc2cc1OCCCN1CCCC1 [Compound 837] |  |  | 0.1 to 1 | 0.1 to 1
28 | CCN1CC(COc2cc(Nc3nc(C)cc4[nH]ccc34)ncc2OC)C1 [Compound 613] |  |  | 0.1 to 1 | < 0.1
29 | CNc1cc(C)nc(Nc2ccc(OC)c(CN[C@H]3CCNC3)c2)n1 [Compound 813] |  |  | 1 to 10 | 0.1 to 1
30 | CNc1cc(C2CCN(CCOC)CC2)c2cc(OC)c(OCCCN3CCCC3)cc2n1 [Compound 839] |  |  | < 0.1 | < 0.1
31 | COc1ccc(Nc2nccc(Nc3cccc(F)c3)n2)cc1OCCCN1CCCC1 [Compound 349] | 1 to 10 | 1 to 10 |  | 
32 | COc1ccc(Nc2ccc3cnn(C)c3c2)cc1OCCCN1CCCC1 [Compound 341] | > 10 | > 10 |  | 
33 | COc1ccc(Nc2cc(C)[nH]n2)cc1OCCCN1CCCC1 [Compound 796] |  |  | > 10 | > 10
34 | CNc1cnnc(Nc2cc(OCCCN3CCCC3)c(OC)cn2)c1 [Compound 322, N^3-(5-methoxy-4-(3-(pyrrolidin-1-yl)propoxy)pyridin-2-yl)-N^5-methylpyridazine-3,5-diamine] | < 0.1 | < 0.1 |  | 
35 | CNCc1cnc(Nc2ccc(OC)c(OCCCN3CCCC3)c2)nc1 [Compound 339] | > 10 | > 10 |  | 
36 | CNc1cc(C)nc(Nc2cc(OCCCN3CCCC3)c3nc(C)cn3c2)n1 [Compound 616] |  |  | 1 to 10 | 0.1 to 1
37 | CNc1cc(C)nc(Nc2ccc(OC)c(C#CC3CCNC3)c2)n1 (stereo not drawn) [Compound 845] |  |  | 0.1 to 1 | < 0.1
38 | COc1ccc(Nc2ccc3cnn(C)c3n2)cc1OCCCN1CCCC1 [Compound 257, N-(4-methoxy-3-(3-(pyrrolidin-1-yl)propoxy)phenyl)-1-methyl-1H-pyrazolo[3,4-b]pyridin-6-amine] | > 10 | > 10 |  | 
39 | COc1cc2c(C3CCN(C(C)=O)CC3)cc(C)nc2cc1OCCCN1CCCC1 [Compound 834] |  |  | 0.1 to 1 | 0.1 to 1
